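GI50 = concentration required for 50% inhibition of growth. TGI denotes the concentration required for complete inhibition of growth.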
Legend:
Test in all cases: growth of human tumour cells (NCI), 384-well format
786-0 renal = test system: 786-0 renal
A549 NSCLC = test system: A549 NSCLC
ACHN renal = test system: ACHN renal
BT-549 breast = test system: BT-549 breast
CAKI-1 renal = test system: CAKI-1 renal
CCRF-CEM leukemia = test system: CCRF-CEM leukemia
COLO 205 colon = test system: COLO 205 colon
DU-145 prostate = test system: DU-145 prostate
EKVX NSCLC = test system: EKVX NSCLC
HCC-2998 colon = test system: HCC-2998 colon
HCT-116 colon = test system: HCT-116 colon
HCT-15 colon = test system: HCT-15 colon
HL-60(TB) leukemia = test system: HL-60(TB) leukemia
HOP-62 NSCLC = test system: HOP-62 NSCLC
HOP-92 NSCLC = test system: HOP-92 NSCLC
HS 578T breast = test system: HS 578T breast
HT29 colon = test system: HT29 colon
IGROV1 ovarian = test system: IGROV1 ovarian
K-562 leukemia = test system: K-562 leukemia
KM12 colon = test system: KM12 colon
LOX IMVI melanoma = test system: LOX IMVI melanoma
M14 melanoma = test system: M14 melanoma
MALME-3M melanoma = test system: MALME-3M melanoma
MCF7 breast = test system: MCF7 breast
MDA-MB-435 melanoma = test system: MDA-MB-435 melanoma
MDA-MB-468 breast = test system: MDA-MB-468 breast
MOLT-4 leukemia = test system: MOLT-4 leukemia
NCI-H226 lung = test system: NCI-H226 lung
NCI-H23 lung = test system: NCI-H23 lung
NCI-H322M lung = test system: NCI-H322M lung
NCI-H460 NSCLC = test system: NCI-H460 NSCLC
NCI/ADR-RES ovarian = test system: NCI/ADR-RES ovarian
OVCAR-3 ovarian = test system: OVCAR-3 ovarian
OVCAR-4 ovarian = test system: OVCAR-4 ovarian
OVCAR-5 ovarian = test system: OVCAR-5 ovarian
OVCAR-8 ovarian = test system: OVCAR-8 ovarian
PC-3 prostate = test system: PC-3 prostate
RPMI-8226 leukemia = test system: RPMI-8226 leukemia
RXF 393 renal = test system: RXF 393 renal
SF-268 CNS = test system: SF-268 CNS
SF-295 CNS = test system: SF-295 CNS
SF-539 CNS = test system: SF-539 CNS
SK-MEL-5 melanoma = test system: SK-MEL-5 melanoma
SK-OV-3 ovarian = test system: SK-OV-3 ovarian
SNB-75 CNS = test system: SNB-75 CNS
SW-620 colon = test system: SW-620 colon
T-47D breast = test system: T-47D breast
TK-10 renal = test system: TK-10 renal
U251 glioblastoma = test system: U251 glioblastoma
UACC-257 melanoma = test system: UACC-257 melanoma
UACC-62 melanoma = test system: UACC-62 melanoma
UO-31 renal = test system: UO-31 renal

## COc1ncc(-c2ccc3nccc(-c4ccnnc4)c3c2)cc1NS(=O)(=O)c1ccc(F)cc1F
786-0 renal
  GI50: 0.0171 µM
  TGI: 0.276 µM
A549 NSCLC
  GI50: < 0.01 µM
  TGI: 0.101 µM
ACHN renal
  GI50: < 0.01 µM
  TGI: > 100 µM
BT-549 breast
  GI50: < 0.01 µM
  TGI: 0.0483 µM
CAKI-1 renal
  GI50: < 0.01 µM
  TGI: 0.106 µM
CCRF-CEM leukemia
  GI50: < 0.01 µM
  TGI: < 0.01 µM
COLO 205 colon
  GI50: < 0.01 µM
  TGI: 0.125 µM
DU-145 prostate
  GI50: 0.0214 µM
  TGI: > 100 µM
EKVX NSCLC
  GI50: < 0.01 µM
  TGI: 0.098 µM
HCC-2998 colon
  GI50: 0.0143 µM
  TGI: 0.912 µM
HCT-116 colon
  GI50: 0.0133 µM
  TGI: 1.17 µM
HCT-15 colon
  GI50: < 0.01 µM
  TGI: 2.96 µM
HL-60(TB) leukemia
  GI50: < 0.01 µM
  TGI: 0.0107 µM
HOP-62 NSCLC
  GI50: 0.0257 µM
  TGI: 0.635 µM
HOP-92 NSCLC
  GI50: < 0.01 µM
  TGI: 0.046 µM
HS 578T breast
  GI50: < 0.01 µM
  TGI: 0.0173 µM
HT29 colon
  GI50: < 0.01 µM
  TGI: 1.41 µM
IGROV1 ovarian
  GI50: < 0.01 µM
  TGI: < 0.01 µM
K-562 leukemia
  GI50: 0.0442 µM
  TGI: 12.5 µM
KM12 colon
  GI50: 0.0219 µM
  TGI: 2.19 µM
LOX IMVI melanoma
  GI50: 0.0123 µM
  TGI: 0.135 µM
M14 melanoma
  GI50: < 0.01 µM
  TGI: 1.07 µM
MALME-3M melanoma
  GI50: < 0.01 µM
  TGI: 0.0264 µM
MCF7 breast
  GI50: < 0.01 µM
  TGI: 73.4 µM
MDA-MB-435 melanoma
  GI50: 0.0182 µM
  TGI: 1.13 µM
MDA-MB-468 breast
  GI50: < 0.01 µM
  TGI: 0.0117 µM
MOLT-4 leukemia
  GI50: < 0.01 µM
  TGI: < 0.01 µM
NCI-H226 lung
  GI50: 0.0185 µM
  TGI: 2.4 µM
NCI-H23 lung
  GI50: < 0.01 µM
  TGI: 2.52 µM
NCI-H322M lung
  GI50: 0.0111 µM
  TGI: 0.723 µM
NCI-H460 NSCLC
  GI50: < 0.01 µM
  TGI: 0.0515 µM
NCI/ADR-RES ovarian
  GI50: 0.043 µM
  TGI: 1.65 µM
OVCAR-3 ovarian
  GI50: < 0.01 µM
  TGI: 0.11 µM
OVCAR-4 ovarian
  GI50: 0.0252 µM
  TGI: 0.48 µM
OVCAR-5 ovarian
  GI50: < 0.01 µM
  TGI: 1.13 µM
OVCAR-8 ovarian
  GI50: 0.0234 µM
  TGI: 1.85 µM
PC-3 prostate
  GI50: < 0.01 µM
  TGI: 0.0976 µM
RPMI-8226 leukemia
  GI50: 0.0155 µM
  TGI: 0.0544 µM
RXF 393 renal
  GI50: < 0.01 µM
  TGI: 0.0253 µM
SF-268 CNS
  GI50: < 0.01 µM
  TGI: < 0.01 µM
SF-295 CNS
  GI50: < 0.01 µM
  TGI: 0.0541 µM
SF-539 CNS
  GI50: 0.0138 µM
  TGI: 0.103 µM
SK-MEL-5 melanoma
  GI50: < 0.01 µM
  TGI: 0.0436 µM
SK-OV-3 ovarian
  GI50: < 0.01 µM
  TGI: 0.0513 µM
SNB-75 CNS
  GI50: < 0.01 µM
  TGI: 0.0142 µM
SW-620 colon
  GI50: 0.0354 µM
  TGI: 1.5 µM
T-47D breast
  GI50: < 0.01 µM
  TGI: < 0.01 µM
TK-10 renal
  GI50: < 0.01 µM
  TGI: 0.251 µM
U251 glioblastoma
  GI50: 0.0211 µM
  TGI: 1.27 µM
UACC-257 melanoma
  GI50: 0.0133 µM
  TGI: 0.0873 µM
UACC-62 melanoma
  GI50: < 0.01 µM
  TGI: 0.0333 µM
UO-31 renal
  GI50: < 0.01 µM
  TGI: 0.137 µM
